# Measurements reported in PubChem BioAssay AID1963858 (Molecular Pharmacology Branch, DTP, NCI, 2024).
# Activity calls are given as the source filed them. The calls were made as follows: active = viability on the fitted dose curve at most 10% of control; inactive = the rest.
# Tested on: HOP-62 multicell spheroids with HUVEC/MSC, viability
# Experiment: Anticancer human tumor HOP-62 cell line growth inhibition [KRAS2];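 as to IC50: viability read after a week of compound exposure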;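 as to viability, T/C: viability read after a week of compound exposure; 100% = DMSO vehicle-treated spheroids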
# Settings: for IC50: curve of first compound; for viability, T/C: stronger effect = lower value
# Summary of the method: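 KRAS-mutant tumor cells were grown as spheroids with HUVEC endothelial cells and human MSCs as stroma. Targeted agents were tested alone and with KRAS pathway inhibitors. Doses started at or near clinical Cmax, or 10 microM, descending half-log.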
# [1] = second compound 0.1 µM, first compound 0.0316 µM
# [2] = second compound 0.1 µM, first compound 0.1 µM
# [3] = second compound 0.316 µM, first compound 0.0316 µM
# [4] = second compound 0.316 µM, first compound 0.1 µM
# [5] = second compound 1 µM, first compound 0.0316 µM
# [6] = second compound 1 µM, first compound 0.1 µM
# [7] = second compound 3.16 µM, first compound 0.0316 µM
# [8] = second compound 3.16 µM, first compound 0.1 µM
# [9] = second compound 10 µM, first compound 0.0316 µM
# [10] = second compound 10 µM, first compound 0.1 µM
# [11] = second compound 0.1 µM, first compound 0.316 µM
# [12] = second compound 0.1 µM, first compound 1 µM
# [13] = second compound 0.1 µM, first compound 3.16 µM
# [14] = second compound 0.1 µM, first compound 10 µM
# [15] = second compound 0.316 µM, first compound 0.316 µM
# [16] = second compound 0.316 µM, first compound 1 µM
# [17] = second compound 0.316 µM, first compound 3.16 µM
# [18] = second compound 0.316 µM, first compound 10 µM
# [19] = second compound 1 µM, first compound 0.316 µM
# [20] = second compound 1 µM, first compound 1 µM
# [21] = second compound 1 µM, first compound 3.16 µM
# [22] = second compound 1 µM, first compound 10 µM
# [23] = second compound 3.16 µM, first compound 0.316 µM
# [24] = second compound 3.16 µM, first compound 1 µM
# [25] = second compound 3.16 µM, first compound 3.16 µM
# [26] = second compound 3.16 µM, first compound 10 µM
# [27] = second compound 10 µM, first compound 0.316 µM
# [28] = second compound 10 µM, first compound 1 µM
# [29] = second compound 10 µM, first compound 3.16 µM
# [30] = second compound 10 µM, first compound 10 µM
SMILES,IC50 (second compound 0.1 µM) [µM],IC50 (second compound 0.316 µM) [µM],IC50 (second compound 1 µM) [µM],IC50 (second compound 3.16 µM) [µM],IC50 (second compound 10 µM) [µM],"viability, T/C [1] [%]","viability, T/C [2] [%]","viability, T/C [3] [%]","viability, T/C [4] [%]","viability, T/C [5] [%]","viability, T/C [6] [%]","viability, T/C [7] [%]","viability, T/C [8] [%]","viability, T/C [9] [%]","viability, T/C [10] [%]","viability, T/C [11] [%]","viability, T/C [12] [%]","viability, T/C [13] [%]","viability, T/C [14] [%]","viability, T/C [15] [%]",other results
CN(C)C/C=C/C(=O)Nc1cc2c(Nc3ccc(F)c(Cl)c3)ncnc2cc1O[C@H]1CCOC1 + CC1OCC2(CCN(c3cnc(Sc4ccnc(N)c4Cl)c(N)n3)CC2)C1N,> 0.1,> 0.1,> 0.1,> 0.1,< 0.000316,102,91.3,90.9,79.2,105,104,56.7,47.1,49.4,46.8,,,,,,"viability, T/C (second compound 0.1 µM, first compound 0.000316 µM): 112%; viability, T/C (second compound 0.1 µM, first compound 0.001 µM): 109%; viability, T/C (second compound 0.1 µM, first compound 0.00316 µM): 103%; viability, T/C (second compound 0.1 µM, first compound 0.01 µM): 95.4%; viability, T/C (second compound 0.316 µM, first compound 0.000316 µM): 97.6%; viability, T/C (second compound 0.316 µM, first compound 0.001 µM): 93.9%; viability, T/C (second compound 0.316 µM, first compound 0.00316 µM): 104%; viability, T/C (second compound 0.316 µM, first compound 0.01 µM): 86.2%; viability, T/C (second compound 1 µM, first compound 0.000316 µM): 110%; viability, T/C (second compound 1 µM, first compound 0.001 µM): 106%; viability, T/C (second compound 1 µM, first compound 0.00316 µM): 107%; viability, T/C (second compound 1 µM, first compound 0.01 µM): 102%; viability, T/C (second compound 3.16 µM, first compound 0.000316 µM): 60.8%; viability, T/C (second compound 3.16 µM, first compound 0.001 µM): 46.2%; viability, T/C (second compound 3.16 µM, first compound 0.00316 µM): 53.3%; viability, T/C (second compound 3.16 µM, first compound 0.01 µM): 53.3%; outcome (second compound 10 µM, first compound 0.000316 µM): inactive; outcome (second compound 10 µM, first compound 0.001 µM): inactive; viability, T/C (second compound 10 µM, first compound 0.00316 µM): 43.6%; outcome (second compound 10 µM, first compound 0.01 µM): inactive"
COC(=O)c1ccc2c(C(=Nc3ccc(N(C)C(=O)CN4CCN(C)CC4)cc3)c3ccccc3)c(O)[nH]c2c1 + CC1OCC2(CCN(c3cnc(Sc4ccnc(N)c4Cl)c(N)n3)CC2)C1N,0.179,0.105,< 0.0316,< 0.0316,< 0.0316,75.1,57.4,53.9,50.9,38.5,30,27,21.7,33.5,21.3,43.7,29.2,25.5,22.7,29.4,"viability, T/C [16]: 23.6%; viability, T/C [17]: 25.1%; viability, T/C [18]: 19.5%; viability, T/C [19]: 24.1%; viability, T/C [20]: 20.2%; viability, T/C [21]: 21.6%; viability, T/C [22]: 17.4%; viability, T/C [23]: 18.5%; viability, T/C [24]: 18.4%; viability, T/C [25]: 21.2%; viability, T/C [26]: 14.3%; viability, T/C [27]: 27.5%; viability, T/C [28]: 20.4%; viability, T/C [29]: 16.9%; viability, T/C [30]: 11.2%"
O=C(c1cc(Cc2n[nH]c(=O)c3ccccc23)ccc1F)N1CCN(C(=O)C2CC2)CC1 + CC1OCC2(CCN(c3cnc(Sc4ccnc(N)c4Cl)c(N)n3)CC2)C1N,6.46,5.42,2.28,< 0.0316,< 0.0316,90,84.3,84.2,83.7,101,70.1,44.2,43,37.1,40.5,80.8,85.4,66.8,39.8,78.6,"viability, T/C [16]: 69.5%; viability, T/C [17]: 57.6%; viability, T/C [18]: 41.1%; viability, T/C [19]: 63.7%; viability, T/C [20]: 65.5%; viability, T/C [21]: 51.2%; viability, T/C [22]: 34.5%; viability, T/C [23]: 40.3%; viability, T/C [24]: 44.1%; viability, T/C [25]: 37%; viability, T/C [26]: 26.1%; viability, T/C [27]: 36.8%; viability, T/C [28]: 43.2%; viability, T/C [29]: 32.7%; viability, T/C [30]: 28%"
